This test has as its target interaction between p53 and MDM2 proteins (recombinant GST-tagged MDM2) (Homo sapiens, UniProt Q00987). Kind of test: HTRF assay of inhibition of the p53-MDM2 interaction (GST-MDM2 / biotinylated p53 peptide).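 Note: FRET read-out from Eu-labelled anti-GST antibody to streptavidin-APC, with 90 nM N-terminally biotinylated p53 peptide and 160 ng/ml GST-MDM2 in Tris-borate saline containing 1 mM DTT, 384-well format.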 Type of test: binding. Particulars: HTRF, 0.02% BSA, 37° C. 1 h. On the technique in general: Time-resolved FRET reads energy transfer from a long-lived donor to a nearby acceptor.

Structures can show the parent of a compound that is named as a salt. Where two headings read alike, the source gives them in different places.

Broadly, the IC50 is the concentration that gives 50% inhibition.

interaction between p53 and MDM2 proteins (recombinant GST-tagged MDM2), sequence (Q00987 whole entry): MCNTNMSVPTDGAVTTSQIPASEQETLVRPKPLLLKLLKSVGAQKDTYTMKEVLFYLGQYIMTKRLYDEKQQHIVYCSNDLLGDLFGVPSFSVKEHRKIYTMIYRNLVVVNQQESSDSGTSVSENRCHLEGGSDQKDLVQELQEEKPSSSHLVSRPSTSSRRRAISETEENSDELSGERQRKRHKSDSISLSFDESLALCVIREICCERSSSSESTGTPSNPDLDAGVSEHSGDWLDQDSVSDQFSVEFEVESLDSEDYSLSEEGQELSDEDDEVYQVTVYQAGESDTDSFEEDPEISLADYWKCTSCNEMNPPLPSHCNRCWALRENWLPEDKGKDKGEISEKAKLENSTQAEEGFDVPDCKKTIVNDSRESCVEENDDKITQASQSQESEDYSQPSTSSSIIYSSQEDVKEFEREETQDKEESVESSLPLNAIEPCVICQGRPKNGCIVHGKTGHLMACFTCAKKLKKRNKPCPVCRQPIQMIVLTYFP
Procedure: The ability of the compounds to inhibit the interaction between p53 and MDM2 proteins was measured by an HTRF (homogeneous time-resolved fluorescence) assay in which recombinant GST-tagged MDM2 binds to a peptide that resembles the MDM2-interacting region of p53 (Lane et al.). Binding of GST-MDM2 protein and p53-peptide (biotinylated on its N-terminal end) is registered by the FRET (fluorescence resonance energy transfer) between Europium (Eu)-labeled anti-GST antibody and streptavidin-conjugated Allophycocyanin (APC).
Test is performed in black flat-bottom 384-well plates (Costar) in a total volume of 40 uL containing: 90 nM biotinylate peptide, 160 ng/ml GST-MDM2, 20 nM streptavidin-APC (PerkinElmerWallac), 2 nM Eu-labeled anti-GST-antibody (PerkinElmerWallac), 0.02% bovine serum albumin (BSA), 1 mM dithiothreitol (DTT) and 20 mM Tris-borate saline (TBS) buffer as follows: Add 10 uL of GST-MDM2 (640 ng/ml working solution) in reaction buffer to each well. […] Incubate at 37° C. for 1 h.

For `COc1cc(C(=O)OCCOC(=O)[C@H](C)N)ccc1NC(=O)[C@@H]1N[C@@H](CC(C)(C)C)[C@](C#N)(c2ccc(Cl)cc2F)[C@H]1c1cccc(Cl)c1F` [Example 4, 4-{[(2R,3S,4R,5S)-3-(3-Chloro-2-fluoro-phenyl)-4-(4-chloro-2-fluoro-phenyl)-4-cyano-5-(2,2-dimethyl-propyl)-pyrrolidine-2-carbonyl]-amino}-3-methoxy-benzoic acid 2-((S)-2-amino-propionyloxy)-ethyl ester], the IC50 was found to be 0.00984 µM. The same measure, in the same setting: the result for `COc1cc(C(=O)OCCOP(=O)(OC(C)(C)C)OC(C)(C)C)ccc1NC(=O)[C@@H]1N[C@@H](CC(C)(C)C)[C@](C#N)(c2ccc(Cl)cc2F)[C@H]1c1cccc(Cl)c1F` [Example 12, 2-(Di-tert-butoxyphosphoryloxy)ethyl 4-((2R,3S,4R,5S)-3-(3-chloro-2-fluorophenyl)-4-(4-chloro-2-fluorophenyl)-4-cyano-5-neopentylpyrrolidine-2-carboxamido)-3-methoxybenzoate] reads 0.00959 µM; that for `COc1cc(C(=O)OCCN(C)C)ccc1NC(=O)[C@@H]1N[C@@H](CC(C)(C)C)[C@](C#N)(c2ccc(Cl)cc2F)[C@H]1c1cccc(Cl)c1F` [Example 7, 2-(Dimethylamino)ethyl 4-((2R,3S,4R,5S)-3-(3-chloro-2-fluorophenyl)-4-(4-chloro-2-fluorophenyl)-4-cyano-5-neopentylpyrrolidine-2-carboxamido)-3-methoxybenzoate], 0.0146 µM. The same measure, in the same setting: the result for `COc1cc(C(=O)OC[C@H](O)[C@@H](O)[C@H](O)[C@H](O)CO)ccc1NC(=O)[C@@H]1N[C@@H](CC(C)(C)C)[C@](C#N)(c2ccc(Cl)cc2F)[C@H]1c1cccc(Cl)c1F` [Example 28, 4-{[(2R,3S,4R,5S)-4-(4-Chloro-2-fluoro-phenyl)-3-(3-chloro-2-fluoro-phenyl)-4-cyano-5-(2,2-dimethyl-propyl)-pyrrolidine-2-carbonyl]-amino}-3-methoxy-benzoic acid (2S,3R,4R,5R)-2,3,4,5,6-pentahydroxy-hexyl ester] reads 0.00602 µM.

As for `COc1cc(C(=O)N[C@@H]2[C@@H](O)[C@H](O)[C@@H](CO)O[C@@H]2O)ccc1NC(=O)[C@@H]1N[C@@H](CC(C)(C)C)[C@](C#N)(c2ccc(Cl)cc2F)[C@H]1c1cccc(Cl)c1F` [Example 56, (2R,3S,4R,5S)-4-(4-Chloro-2-fluoro-phenyl)-3-(3-chloro-2-fluoro-phenyl)-4-cyano-5-(2,2-dimethyl-propyl)-pyrrolidine-2-carboxylic acid [2-methoxy-4-((2S,3R,4R,5S,6R)-2,4,5-trihydroxy-6-hydroxymethyl-tetrahydro-pyran-3-ylcarbamoyl)-phenyl]-amide, hydrochloride], the IC50 was 0.00988 µM. Turning to `COc1cc(C(=O)OCCOP(=O)(O)O)ccc1NC(=O)[C@@H]1N[C@@H](CC(C)(C)C)[C@](C#N)(c2ccc(Cl)cc2F)[C@H]1c1cccc(Cl)c1F` [Example 13, 2-(Phosphonooxy)ethyl 4-((2R,3S,4R,5S)-3-(3-chloro-2-fluorophenyl)-4-(4-chloro-2-fluorophenyl)-4-cyano-5-neopentylpyrrolidine-2-carboxamido)-3-methoxybenzoate, trifluoroacetate salt], the IC50 was 0.00454 µM. On the same count and under the same terms, the result for `COc1cc(C(=O)OCC(=O)N2CCOCC2)ccc1NC(=O)[C@@H]1N[C@@H](CC(C)(C)C)[C@](C#N)(c2ccc(Cl)cc2F)[C@H]1c1cccc(Cl)c1F` [Example 66, 4-{[(2R,3S,4R,5S)-4-(4-Chloro-2-fluoro-phenyl)-3-(3-chloro-2-fluoro-phenyl)-4-cyano-5-(2,2-dimethyl-propyl)-pyrrolidine-2-carbonyl]-amino}-3-methoxy-benzoic acid 2-morpholin-4-yl-2-oxo-ethyl ester] reads 0.00904 µM; that for `COc1cc(C(=O)OCCI)ccc1NC(=O)[C@@H]1N[C@@H](CC(C)(C)C)[C@](C#N)(c2ccc(Cl)cc2F)[C@H]1c1cccc(Cl)c1F` [Example 11, 2-Iodoethyl 4-((2R,3S,4R,5S)-3-(3-chloro-2-fluorophenyl)-4-(4-chloro-2-fluorophenyl)-4-cyano-5-neopentylpyrrolidine-2-carboxamido)-3-methoxybenzoate], 0.0117 µM; that for `COc1cc(C(=O)NCCOCCOCCOCCN)ccc1NC(=O)[C@@H]1N[C@@H](CC(C)(C)C)[C@](C#N)(c2ccc(Cl)cc2F)[C@H]1c1cccc(Cl)c1F` [Example 77, (2R,3S,4R,5S)-4-(4-Chloro-2-fluoro-phenyl)-3-(3-chloro-2-fluoro-phenyl)-4-cyano-5-(2,2-dimethyl-propyl)-pyrrolidine-2-carboxylic acid [4-(2-{2-[2-(2-amino-ethoxy)-ethoxy]-ethoxy}-ethylcarbamoyl)-2-methoxy-phenyl]-amide], 0.00631 µM. Same read-out and setting: the result for `COc1cc(C(=O)OCC(=O)NCC(O)CO)ccc1NC(=O)[C@@H]1N[C@@H](CC(C)(C)C)[C@](C#N)(c2ccc(Cl)cc2F)[C@H]1c1cccc(Cl)c1F` (stereo partly drawn) [Example 68, 4-{[(2R,3S,4R,5S)-4-(4-Chloro-2-fluoro-phenyl)-3-(3-chloro-2-fluoro-phenyl)-4-cyano-5-(2,2-dimethyl-propyl)-pyrrolidine-2-carbonyl]-amino}-3-methoxy-benzoic acid (2,3-dihydroxy-propylcarbamoyl)-methyl ester] reads 0.012 µM; that for `COc1cc(C(=O)OCC2COC(C)(C)O2)ccc1NC(=O)[C@@H]1N[C@@H](CC(C)(C)C)[C@](C#N)(c2ccc(Cl)cc2F)[C@H]1c1cccc(Cl)c1F` (stereo partly drawn) [Example 8, (2,2-Dimethyl-1,3-dioxolan-4-yl)methyl 4-((2R,3S,4R,5S)-3-(3-chloro-2-fluorophenyl)-4-(4-chloro-2-fluorophenyl)-4-cyano-5-neopentylpyrrolidine-2-carboxamido)-3-methoxybenzoate], 0.00957 µM. On the same count and under the same terms, the figure for `COc1cc(C(=O)OCC(=O)N[C@@H](CCC(=O)OCc2ccccc2)C(=O)OCc2ccccc2)ccc1NC(=O)[C@@H]1N[C@@H](CC(C)(C)C)[C@](C#N)(c2ccc(Cl)cc2F)[C@H]1c1cccc(Cl)c1F` [Example 70, (S)-2-[2-(4-{[(2R,3S,4R,5S)-4-(4-Chloro-2-fluoro-phenyl)-3-(3-chloro-2-fluoro-phenyl)-4-cyano-5-(2,2-dimethyl-propyl)-pyrrolidine-2-carbonyl]-amino}-3-methoxy-benzoyloxy)-acetylamino]-pentanedioic acid dibenzyl ester] is 0.0564 µM; for `COc1cc(C(=O)OCCN2CCN(CCOC(=O)c3ccc(NC(=O)[C@@H]4N[C@@H](CC(C)(C)C)[C@](C#N)(c5ccc(Cl)cc5F)[C@H]4c4cccc(Cl)c4F)c(OC)c3)CC2)ccc1NC(=O)[C@@H]1N[C@@H](CC(C)(C)C)[C@](C#N)(c2ccc(Cl)cc2F)[C@H]1c1cccc(Cl)c1F` [Example 60, 4-{[(2R,3S,4R,5S)-4-(4-Chloro-2-fluoro-phenyl)-3-(3-chloro-2-fluoro-phenyl)-4-cyano-5-(2,2-dimethyl-propyl)-pyrrolidine-2-carbonyl]-amino}-3-methoxy-benzoic acid, 2-[4-(2-hydroxy-ethyl)-piperazin-1-yl]-ethyl ester, dimer] it is 0.211 µM.

As to `COc1cc(C(=O)OC2CCN(C)CC2)ccc1NC(=O)[C@@H]1N[C@@H](CC(C)(C)C)[C@](C#N)(c2ccc(Cl)cc2F)[C@H]1c1cccc(Cl)c1F` [Example 17, 4-{[(2R,3S,4R,5S)-4-(4-Chloro-2-fluoro-phenyl)-3-(3-chloro-2-fluoro-phenyl)-4-cyano-5-(2,2-dimethyl-propyl)-pyrrolidine-2-carbonyl]-amino}-3-methoxy-benzoic acid 1-methyl-piperidin-4-yl ester], the IC50 worked out at 0.0115 µM. Same read-out and setting: the figure for `COc1cc(C(=O)N[C@H](CCC(=O)O)C(=O)O)ccc1NC(=O)[C@@H]1N[C@@H](CC(C)(C)C)[C@](C#N)(c2ccc(Cl)cc2F)[C@H]1c1cccc(Cl)c1F` [Example 54, (R)-2-(4-{[(2R,3S,4R,5S)-4-(4-Chloro-2-fluoro-phenyl)-3-(3-chloro-2-fluoro-phenyl)-4-cyano-5-(2,2-dimethyl-propyl)-pyrrolidine-2-carbonyl]-amino}-3-methoxy-benzoylamino)-pentanedioic acid, hydrochloride] is 0.00455 µM; for `COc1cc(C(=O)OCC(C)N2CCOCC2)ccc1NC(=O)[C@@H]1N[C@@H](CC(C)(C)C)[C@](C#N)(c2ccc(Cl)cc2F)[C@H]1c1cccc(Cl)c1F` (stereo partly drawn) [Example 25, 4-{[(2R,3S,4R,5S)-4-(4-Chloro-2-fluoro-phenyl)-3-(3-chloro-2-fluoro-phenyl)-4-cyano-5-(2,2-dimethyl-propyl)-pyrrolidine-2-carbonyl]-amino}-3-methoxy-benzoic acid 2-morpholin-4-yl-propyl ester, hydrochloride] it is 0.0155 µM.

For “4-{[(2R,3S,4R,5S)-4-(4-Chloro-2-fluoro-phenyl)-3-(3-chloro-2-fluoro-phenyl)-4-cyano-5-(2,2-dimethyl-propyl)-pyrrolidine-2-carbonyl]-amino}-3-methoxy-benzoic acid, polyethylene glycol-600 ester, trifluoroacetate salt [Example 44]”, the IC50 (read-out: IC50 (uM, 0.02% BSA)) turned out to be 0.0113 µM. As for `COc1cc(C(=O)OC[C@H]2O[C@@H](O)[C@H](O)[C@@H](O)[C@@H]2O)ccc1NC(=O)[C@@H]1N[C@@H](CC(C)(C)C)[C@](C#N)(c2ccc(Cl)cc2F)[C@H]1c1cccc(Cl)c1F` [Example 41, 4-{[(2R,3S,4R,5S)-4-(4-Chloro-2-fluoro-phenyl)-3-(3-chloro-2-fluoro-phenyl)-4-cyano-5-(2,2-dimethyl-propyl)-pyrrolidine-2-carbonyl]-amino}-3-methoxy-benzoic acid (2R,3S,4S,5R,6R)-3,4,5,6-tetrahydroxy-tetrahydro-pyran-2-ylmethyl ester; compound with trifluoro-acetic acid], the IC50 was determined as 0.00695 µM.

In the case of `COc1cc(C(=O)OCC(=O)NCCOCCOCCOCCO)ccc1NC(=O)[C@@H]1N[C@@H](CC(C)(C)C)[C@](C#N)(c2ccc(Cl)cc2F)[C@H]1c1cccc(Cl)c1F` [Example 75, 4-{[(2R,3S,4R,5S)-4-(4-Chloro-2-fluoro-phenyl)-3-(3-chloro-2-fluoro-phenyl)-4-cyano-5-(2,2-dimethyl-propyl)-pyrrolidine-2-carbonyl]-amino}-3-methoxy-benzoic acid (2-{2-[2-(2-hydroxy-ethoxy)-ethoxy]-ethoxy}-ethylcarbamoyl)-methyl ester], the half-maximal inhibitory concentration (IC50) was determined as 0.0092 µM.
